Structures can show the parent of a compound that is named as a salt.
tested on: serotonin release in the cortex; conditions: after systemic administration; cited from earlier work

| Compound | serotonin release in the cortex |
| --- | --- |
| COc1ccc(NC(=O)c2ccc(-c3ccc(-c4noc(C)n4)cc3C)cc2)cc1N1CCN(C)CC1 [GR 127 935] | reduces serotonin release |

tested on: not given; conditions: not given

| melting point [°C] | Compound |
| --- | --- |
| 203 | CC1(C)c2ccc([N+](=O)[O-])cc2S(=O)(=O)N1CCCN1CCN(c2cccc3ccccc23)CC1 |
| 151 | CC1(C)c2ccccc2S(=O)(=O)N1CCCN1CCN(c2ccc(Cl)c3ccccc23)CC1 |
| 160 | COc1ccccc1N1CCN(CC(O)CN2C(C)(C)c3ccccc3S2(=O)=O)CC1 (stereo not drawn) |
| 179 | CCC1(CC)c2ccccc2S(=O)(=O)N1CCCN1CCN(c2cccc3ccccc23)CC1 |
| 63 | CC1(C)c2ccccc2S(=O)(=O)N1CCCN1CCN(c2ccc3ccccc3n2)CC1 |
| 193 | C=C(CN1CCN(c2cccc3ccccc23)CC1)CN1C(C)(C)c2ccccc2S1(=O)=O |
| 269 | CC1(C)c2ccc(-n3cccc3)cc2S(=O)(=O)N1CCCN1CCN(c2cccc3ccccc23)CC1 (as salt: hydrochloride) |
| 291 | Cc1cccc(N2CCN(CCN3C(C)(C)c4ccccc4S3(=O)=O)CC2)c1C (as salt: hydrochloride) |
| 271 | CC1(C)c2ccccc2S(=O)(=O)N1CCN1CCN(c2cccc3c2CCC3)CC1 (as salt: hydrochloride) |
| 263 | CC1(C)c2ccccc2S(=O)(=O)N1CCCN1CCN(c2ncccn2)CC1 (as salt: hydrochloride) |
| 207 | COc1ccc(N2CCN(CCN3C(C)(C)c4ccccc4S3(=O)=O)CC2)cc1 (as salt: hydrochloride) |
| 269 | CC1(C)c2ccccc2S(=O)(=O)N1CCCN1CCN(c2nc(-c3ccccc3)nc3ccccc23)CC1 (as salt: hydrochloride) |
| 218 | Cc1ccc(C)c(N2CCN(CCCN3C(C)(C)c4ccccc4S3(=O)=O)CC2)c1 (as salt: hydrochloride) |
| 228 | CC1(C)c2ccccc2S(=O)(=O)N1CCN1CCN(c2ccccc2C#N)CC1 (as salt: hydrochloride) |
| 178 | CC1(C)c2ccccc2S(=O)(=O)N1CCN1CCN(c2ncnc3ccccc23)CC1 (as salt: hydrochloride) |
| 282 | CC1(C)c2ccccc2S(=O)(=O)N1CCN1CCN(c2cccc3ccccc23)CC1 (as salt: hydrochloride) |

tested on: serotonin release in the dorsal raphe nucleus; conditions: rat; together with paroxetine; cited from earlier work

| Compound | effect of paroxetine on serotonin release in the dorsal raphe nucleus |
| --- | --- |
| COc1ccc(NC(=O)c2ccc(-c3ccc(-c4noc(C)n4)cc3C)cc2)cc1N1CCN(C)CC1 [GR 127 935] | potentiated |

— patent US6346622B1, “2-substituted 1,2-benzisothiazole derivatives and their use as serotonin antagonists (5-HT1A, 5HT1B and 5-HT1D)” (Abbott Laboratories, priority 1997, dated 2002)
